Data taken from patent US8524750B2, “(Pyrazol-3-yl)-1,3,4-thiadiazol-2-amine and (pyrazol-3-yl)-1,3,4-thiazol-2-amine compounds” (Glaxo Group Limited, priority 2009, dated 2013).
In brackets after ≈: the same amount, converted by molar mass. Where two headings read alike, the source gives them in different places.

What was measured:
[1] = test system: Mycobacterium tuberculosis H37Rv; assay: Mycobacterium tuberculosis H37Rv Inhibition Assay (Whole Cell Assay); assay type: cell-based; conditions: ATCC 25618 / H37Rv, H37Rv strain (ATCC25618), Middlebrook 7H9, six days at 37° C., resazurin fluorescence after 48 hours
[2] = target: T1, Mycobacterium tuberculosis InhA (Mycobacterium tuberculosis, UniProt P9WGR1); assay: Mycobacterium tuberculosis InhA Inhibition Assay (Enzyme Assay); assay type: biochemical; conditions: 5 nM InhA, 50 μM DDCoA, 50 μM NADH, PIPES buffer pH 6.8, initial velocities of NADH consumption
T1 construct: made in house; host or cells: E. coli
Description: Mycobacterium tuberculosis InhA Inhibition Assay (Enzyme Assay)
InhA is able to reduce 2-trans enoyl-CoA esters with concomitant oxidation of NADH to NAD^+. The assay format is based on the kinetic detection of NADH consumption.
Assay for InhA inhibition is carried out with mycobacterium recombinant protein expressed and purified form E. coli. Standard assay conditions for the determination of kinetic constants and inhibitors activity use 5 nM of InhA, 50 μM of Dodecenoyl-CoA synthesized and purified as described by Quernard et al (DDCoA) and 50 μM of NADH as substrates, and it is carried out in 30 mM PIPES buffer pH 6.8, containing 0.05% of BSA. […] Triclosan is used as positive control in every experiment. One μl of compounds is added to the wells containing 25 μl of the DDCoA+NADH mix, the reaction is started by adding 50 μl of the enzyme solution. Fluorescence from NADH is followed at room temperature during 20 minutes in a fluorescent plate reader (excitation at 340 nm; emission at 480 nm). IC50 values are determined using initial velocities of NADH consumption.
Quernard A, Sacchettini J C, Dessen A, et al. Enzymatic characterization of the target for isoniazid in Mycobacterium tuberculosis. Biochemistry 1995; 34:8235-41.

T1 sequence (P9WGR1 whole entry, looked up): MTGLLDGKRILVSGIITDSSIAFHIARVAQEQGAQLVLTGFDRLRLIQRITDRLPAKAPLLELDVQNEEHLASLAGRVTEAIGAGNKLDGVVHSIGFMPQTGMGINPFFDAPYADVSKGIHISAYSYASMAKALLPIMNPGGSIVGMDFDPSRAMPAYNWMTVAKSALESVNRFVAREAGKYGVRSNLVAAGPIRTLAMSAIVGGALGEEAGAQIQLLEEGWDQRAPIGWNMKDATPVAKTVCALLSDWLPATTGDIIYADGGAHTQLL

SMILES	MIC [1]	IC50 ([2]; IC50 value)	IC50 ([2]; read-out: IC50 value)
Cc1csc(C(C)(O)c2nnc(Nc3ccn(Cc4c(F)ccc(C)c4F)n3)s2)n1 (stereo not shown) [Example 84, 1-[5-({1-[(2,6-difluoro-3-methylphenyl)methyl]-1H-pyrazol-3-yl}amino)-1,3,4-thiadiazol-2-yl]-1-(4-methyl-1,3-thiazol-2-yl)ethanol]	≤ 1 µM	< 111 nM	–
Cc1ccn(Cc2nnc(Nc3ccn(Cc4c(Cl)cccc4Cl)n3)s2)n1 [Example 57, N-{1-[(2,6-dichlorophenyl)methyl]-1H-pyrazol-3-yl}-5-[(3-methyl-1H-pyrazol-1-yl)methyl]-1,3,4-thiadiazol-2-amine]	> 10 µM	–	< 119 nM
Cc1cc(C)n(C(C)c2nnc(Nc3ccn(Cc4cc(F)ccc4Cl)n3)s2)n1 (stereo not shown) [Example 36, N-{1-[(2-chloro-5-fluorophenyl)methyl]-1H-pyrazol-3-yl}-5-[1-(3,5-dimethyl-1H-pyrazol-1-yl)ethyl]-1,3,4-thiadiazol-2-amine]	4 to 10 µM (≈ 1.73 to 4.32 µg/mL)	–	< 116 nM
CC(=O)Nc1ccc(F)c(Cn2ccc(Nc3nnc(C(C)n4nc(C)cc4C)s3)n2)c1F (stereo not shown) [Intermediate 122, N-(3-{[3-({5-[1-(3,5-dimethyl-1H-pyrazol-1-yl)ethyl]-1,3,4-thiadiazol-2-yl}amino)-1H-pyrazol-1-yl]methyl}-2,4-difluorophenyl)acetamide]	> 10 µM	106 to 212 nM	–
Cc1cc(C)n(C(C)c2nnc(Nc3ccn(Cc4c(F)cccc4Cl)n3)s2)n1 (racemic) [Example 28, N-{1-[(2-chloro-6-fluorophenyl)methyl]-1H-pyrazol-3-yl}-5-[1-(3,5-dimethyl-1H-pyrazol-1-yl)ethyl]-1,3,4-thiadiazol-2-amine]	≤ 1 µM	–	< 116 nM
Fc1cccc(Cl)c1Cn1ccc(Nc2nnc(Cn3ccc(C(F)(F)F)n3)s2)n1 [Example 63, N-{1-[(2-chloro-6-fluorophenyl)methyl]-1H-pyrazol-3-yl}-5-{[3-(trifluoromethyl)-1H-pyrazol-1-yl]methyl}-1,3,4-thiadiazol-2-amine]	> 10 µM	–	218 to 1090 nM
Cc1cc(C)n([C@@H](C)c2nnc(Nc3ccn(Cc4c(F)cccc4Cl)n3)s2)n1 (single isomer, unassigned) [Example 69]	1 to 4 µM (≈ 0.432 to 1.73 µg/mL)	–	< 116 nM
Cc1ccn(C(C)c2nnc(Nc3ccn(Cc4ccc(F)cc4Cl)n3)s2)n1 (stereo not shown) [Example 18, N-{1-[(2-chloro-4-fluorophenyl)methyl]-1H-pyrazol-3-yl}-5-[1-(3-methyl-1H-pyrazol-1-yl)ethyl]-1,3,4-thiadiazol-2-amine]	> 10 µM	120 to 239 nM	–
Cc1cc(C)n(C(C)c2nnc(Nc3ccn(Cc4c(F)ccc(F)c4F)n3)s2)n1 (stereo not shown) [Example 77, 5-[1-(3,5-dimethyl-1H-pyrazol-1-yl)ethyl]-N-{1-[(2,3,6-trifluorophenyl)methyl]-1H-pyrazol-3-yl}-1,3,4-thiadiazol-2-amine]	≤ 1 µM	< 115 nM	–
Cc1ccn(C(C)c2nnc(Nc3ccn(Cc4cccc(F)c4F)n3)s2)n1 (stereo not shown) [Example 15, N-{1-[(2,3-difluorophenyl)methyl]-1H-pyrazol-3-yl}-5-[1-(3-methyl-1H-pyrazol-1-yl)ethyl]-1,3,4-thiadiazol-2-amine]	1 to 4 µM (≈ 0.401 to 1.61 µg/mL)	–	< 125 nM
Cc1cc(C)n(C(C)c2nnc(Nc3ccn(Cc4cc(N)ccc4Cl)n3)s2)n1 (stereo not shown) [Example 26, N-{1-[(5-amino-2-chlorophenyl)methyl]-1H-pyrazol-3-yl}-5-[1-(3,5-dimethyl-1H-pyrazol-1-yl)ethyl]-1,3,4-thiadiazol-2-amine]	> 10 µM	–	< 117 nM
Cc1cc(C(F)F)nn1Cc1nnc(Nc2ccn(Cc3ccccc3Cl)n2)s1 [Example 46, N-{1-[(2-chlorophenyl)methyl]-1H-pyrazol-3-yl}-5-{[3-(difluoromethyl)-5-methyl-1H-pyrazol-1-yl]methyl}-1,3,4-thiadiazol-2-amine]	> 10 µM	< 115 nM	–
Cc1csc([C@@](C)(O)c2nnc(Nc3ccn(Cc4c(F)cccc4F)n3)s2)n1 (single isomer, unassigned) [Example 90]	> 10 µM	115 to 230 nM	–
Cc1ccn(C(C)c2nnc(Nc3ccn(Cc4ccccc4Cl)n3)s2)n1 (stereo not shown) [Example 42, N-{1-[(2-chlorophenyl)methyl]-1H-pyrazol-3-yl}-5-[1-(3-methyl-1H-pyrazol-1-yl)ethyl]-1,3,4-thiadiazol-2-amine]	1 to 4 µM (≈ 0.4 to 1.6 µg/mL)	–	< 125 nM
Cc1cc(C)n(C(C)c2nnc(Nc3ccn(Cc4cccc(F)c4F)n3)s2)n1 (stereo not shown) [Example 10, N-{1-[(2,3-difluorophenyl)methyl]-1H-pyrazol-3-yl}-5-[1-(3,5-dimethyl-1H-pyrazol-1-yl)ethyl]-1,3,4-thiadiazol-2-amine]	≤ 1 µM	–	< 120 nM
Cc1cc([N+](=O)[O-])nn1Cc1nnc(Nc2ccn(Cc3c(F)cccc3Cl)n2)s1 [Example 50, N-{1-[(2-chloro-6-fluorophenyl)methyl]-1H-pyrazol-3-yl}-5-[(5-methyl-3-nitro-1H-pyrazol-1-yl)methyl]-1,3,4-thiadiazol-2-amine]	> 10 µM	–	< 111 nM
Cc1cc(C)n(C(C)c2nnc(Nc3ccn(Cc4ccccc4)n3)s2)n1 (stereo not shown) [Example 21, 5-[1-(3,5-dimethyl-1H-pyrazol-1-yl)ethyl]-N-[1-(phenylmethyl)-1H-pyrazol-3-yl]-1,3,4-thiadiazol-2-amine]	4 to 10 µM (≈ 1.52 to 3.79 µg/mL)	–	< 132 nM
Cc1ccn(C(C)c2nnc(Nc3ccn(Cc4c(F)ccc(C)c4F)n3)s2)n1 (stereo not shown) [Example 86, N-{1-[(2,6-difluoro-3-methylphenyl)methyl]-1H-pyrazol-3-yl}-5-[1-(3-methyl-1H-pyrazol-1-yl)ethyl]-1,3,4-thiadiazol-2-amine]	≤ 1 µM	< 120 nM	–
Cc1csc(C(C)c2nnc(Nc3ccn(Cc4cccc(F)c4F)n3)s2)n1 (stereo not shown) [Example 16, N-{1-[(2,3-difluorophenyl)methyl]-1H-pyrazol-3-yl}-5-[1-(4-methyl-1,3-thiazol-2-yl)ethyl]-1,3,4-thiadiazol-2-amine]	1 to 4 µM (≈ 0.418 to 1.67 µg/mL)	–	< 119 nM
Cc1cc(C)n(C(C)c2nnc(Nc3ccn(Cc4cc(Cl)ccc4Cl)n3)s2)n1 (stereo not shown) [Example 2, N-{1-[(2,5-dichlorophenyl)methyl]-1H-pyrazol-3-yl}-5-[1-(3,5-dimethyl-1H-pyrazol-1-yl)ethyl]-1,3,4-thiadiazol-2-amine]	> 10 µM	–	< 112 nM
Cc1cc(C)n(Cc2cnc(Nc3ccn(Cc4c(F)cccc4Cl)n3)s2)n1 [Example 37, N-{1-[(2-chloro-6-fluorophenyl)methyl]-1H-pyrazol-3-yl}-5-[(3,5-dimethyl-1H-pyrazol-1-yl)methyl]-1,3-thiazol-2-amine]	4 to 10 µM (≈ 1.67 to 4.17 µg/mL)	–	< 120 nM
Cc1csc(C(C)(O)c2nnc(Nc3ccn(Cc4cccc(Cl)c4F)n3)s2)n1 (stereo not shown) [Example 79, 1-[5-({1-[(3-chloro-2-fluorophenyl)methyl]-1H-pyrazol-3-yl}amino)-1,3,4-thiadiazol-2-yl]-1-(4-methyl-1,3-thiazol-2-yl)ethanol]	≤ 1 µM	< 111 nM	–
Cc1csc(C(C)(C)c2nnc(Nc3ccn(Cc4c(F)cccc4Cl)n3)s2)n1 [Example 74, N-{1-[(2-chloro-6-fluorophenyl)methyl]-1H-pyrazol-3-yl}-5-[1-methyl-1-(4-methyl-1,3-thiazol-2-yl)ethyl]-1,3,4-thiadiazol-2-amine]	1 to 4 µM (≈ 0.449 to 1.8 µg/mL)	< 111 nM	–
